# Columns and labels:
# [1] = system: multiple proteases in DC2.4 lysates; assay: Competition labeling in DC2.4 lysates with 125I-DCG-04; assay type: biochemical; settings: for potency and selectivity, competition of 125I-DCG-04 labeling of multiple polypeptides: 50 μM library member, DC2.4 lysates, pH 5.5
# Method: Lysates from the dendritic cell line DC2.4 were prepared at pH 5.5 as described above. Purified cathepsin H was purchased from Calbiochem (San Diego, Calif.). Samples of lysates (100 μg total protein in 100 μL buffer B; 50 mM Tris pH 5.5, 5 mM MgC12, 2 mM DTT) or purified cathepsin H (1 μg protein in 100 μL buffer A) were preincubated with 50 μM of each library member (diluted from 5 mM DMSO stocks) for 2 hrs at room temperature. […] Samples were quenched by the addition of 4×sample buffer to 1×followed by boiling for 5 minutes. Samples were analyzed by SDS-PAGE followed by autoradiography.
# cathepsin B = target: T1, cathepsin B (Mus musculus, UniProt P10605); assay: Competition labeling in DC2.4 lysates with cathepsin B-specific 125I-MB-074; assay type: biochemical; settings: P2 library preincubation
# T1 construct: This method allowed analysis of cathepsin B specificity in crude extracts; endogenous in cells; host or cells: DC2.4 dendritic cell line
# T1 sequence (P10605 80-333 limits assumed): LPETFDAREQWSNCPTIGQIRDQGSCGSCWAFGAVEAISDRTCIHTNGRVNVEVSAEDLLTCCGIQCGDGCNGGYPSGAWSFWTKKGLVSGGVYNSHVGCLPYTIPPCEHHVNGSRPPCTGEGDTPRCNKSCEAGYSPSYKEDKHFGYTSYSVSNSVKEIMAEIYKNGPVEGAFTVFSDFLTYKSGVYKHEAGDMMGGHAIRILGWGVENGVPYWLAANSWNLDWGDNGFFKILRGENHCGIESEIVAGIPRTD
# Method: Lysates from the dendritic cell line DC2.4 were prepared at pH 5.5 as described above. Purified cathepsin H was purchased from Calbiochem (San Diego, Calif.). Samples of lysates (100 μg total protein in 100 μL buffer B; 50 mM Tris pH 5.5, 5 mM MgC12, 2 mM DTT) or purified cathepsin H (1 μg protein in 100 μL buffer A) were preincubated with 50 μM of each library member (diluted from 5 mM DMSO stocks) for 2 hrs at room temperature. Samples were then labeled by addition of either ^125I-DCG-04 or ^125I-MB-074 to each sample followed by further incubation at room temperature for 1 hour. Samples were quenched by the addition of 4×sample buffer to 1×followed by boiling for 5 minutes. Samples were analyzed by SDS-PAGE followed by autoradiography.
# invasive cells = settings: treatment of invasive cells, literature; cited from earlier work
# [2] = system: papaine family of cysteine proteases; settings: literature; cited from earlier work
# [3] = system: papain family cysteine proteases in DC2.4 cells; assay: In situ fluorescence labeling of DC2.4 cells; assay type: cell-based; settings: pre-treatment 10 mM for 1 hour
# Method: Dendritic cells (DC2.4) were plated on a 24-well dish (10^5 cells/well) embedded with sterile microscope cover slips, in RPMI medium containing 10% FBS. After 16 hours, cells were washed with 1 ml TC-199 medium and incubated with […] of Bodipy-DCG-04 in TC-199 for 12 hours at 37° C. Cells were washed 3 times with 1 ml TC-199 and incubated for 5 hr in probe-free medium. Subsequently, cells were either lysed in buffer A and analyzed on a 12.5% SDS-PAGE using a fluorescent scanner or viewed under a fluorescent microscope.
# [4] = system: cysteine proteases in DC2.4 dendritic cell extracts; assay: Direct labeling of DC2.4 total cell extracts with probes (affinity blot / autoradiography); assay type: binding
# Method: Tissues were dounce-homogenized in buffer A (50 mM Tris pH 5.5, 1 mM DTT, 5 mM MgCl2, 250 mM sucrose) and extracts centrifuged at 1,100×g for 10 min at 4° C. The resulting supernatant was centrifuged at 22,000×g for 30 min at 4° C. and final supernatants used for all labeling experiments. Cells were lysed using glass beads (<104 microns) in buffer A and supernatants centrifuged for 15,000×g for 15 min at 4° C. The total protein concentration of the final supernatants (soluble) was determined by BCA protein quantification (Pierce).
# Equivalent amounts of radioactive inhibitor stock solutions (approx. 10^6 cpm per sample) were used for all labeling experiments. Samples of lysates (100 μg total protein in 100 μL buffer; 50 mM Tris pH 5.5, 5 mM MgC12, 2 mM DTT) were labeled for 1 hour at 25° C. unless noted otherwise. Samples were quenched by dilution of 4×SDS sample buffer to 1×(for 1D SDS-PAGE) or by dissolving urea to a final concentration of 9.5 M (for 2D SDS-PAGE).
# Quenched DCG-04 labeled samples were separated by SDS/PAGE […] and transferred to nitrocellulose using semi-dry apparatus. Membranes were blocked using phosphate buffered saline (PBS) and 5% (w/v) dry milk for 30 min at 25° C. Blots were washed briefly with PBS/0.2% Tween (PBS-Tween) and treated with avidin-horseradish peroxidase conjugate (VectaStain) in PBS-Tween for 30 min. at 25° C. […]
# [5] = system: papain family proteases in rat liver; assay: Affinity purification and identification of DCG-04 labeled proteases from rat liver; assay type: binding; settings: single-step affinity purification, LC-MS-TOF CID
# Method: Protein lysates prepared in buffer A (50 mM Acetate buffer, 5 mM DTT, 0.1% Triton X-100) were incubated with […] for 1.5 hours at room temperature. After incubation the protein lysate was passed through a PD10 column pre-equilibrated with buffer B (50 mM Tris-Base 7.4, 150 mM NaCl) and proteins were eluted with the same buffer. SDS was added to eluted proteins to a final concentration of 0.5% and the solution boiled for 10 minutes, diluted 2.5 fold with buffer B (to reduce SDS concentration to 0.2%) and incubated with […] of pre-washed Streptavidin beads for 1 hour at room temperature. Beads were washed 5 times with buffer B, and bound proteins were eluted by boiling for 10 minutes in the presence of […]. For 2D analysis, samples in SDS sample buffer were diluted 1:1 with IEF sample buffer ([…], 5% BME, 2% NP-40, 1.6% pH 5-7 ampholines and 0.4% pH 3.5-10 ampholines) and pure NP-40 was added (25% of volume of sample). Samples were applied to IEF tube gels and electrophoresed at 1000V for 13 hours followed by separation in the second dimension on 15% SDS-PAGE gels. […] The mass range recorded in survey acquisitions was m/z 300-1400. […] All the data were measured using a two point external calibration. […]
# [6] = system: cysteine proteases in rat kidney; assay: Affinity purification and identification of DCG-04 modified proteins from rat kidney; assay type: binding; settings: monomeric-avidin purification, mass spectrometry
# Method: A soluble fraction of rat kidney lysate (80 mg total protein) was diluted into anion exchange starting buffer (50 mM Tris, 50 mM NaCl, pH 9.0). The lysate was applied to a […] anion exchange column (Amersham Pharmacia Biotech) and eluted using a linear gradient of 0.05-1M NaCl, pH 9. An aliquot from each fraction (50 μL) was incubated with 50 μM DCG-04 at 25° C. for 1hr and analyzed on a 12.5% SDS/PAGE gel followed by affinity blotting as described above. The fractions containing peak labeling of the 25 kD-30 kD bands were pooled and DCG-04 was added to a final concentration of 50 μM. Pools were incubated at 25° C. for 2 hours and then 12 hours at 4° C. Unbound inhibitor was removed and buffer was exchanged with PBS using a PD-10 column (Pharmacia). Samples were applied to a monomeric-avidin column (1 ml bed volume; Pierce) and the column was washed with 6×1 ml fractions of 1M NaCl. Bound proteins were eluted with 0.5 ml fractions of 2 mM Biotin/100 mM NH4HCO3 buffer. All wash and eluent fractions were analyzed by SDS/PAGE and silver staining. The fractions containing the labeled 25-30 kD bands were pooled, the volume reduced by lyophilization and solid urea added to 9.5 M along with BME to 5%, NP-40 to 2%, pH 5-7 ampholytes to 1.6% and pH 3.5-10 ampholytes to 0.4%. […]
"activity, competition of 125I-MB-074 labeling of cathepsin B (cathepsin B)",Compound,"potency and selectivity, competition of 125I-DCG-04 labeling of multiple polypeptides [1]",further results
–,NCC(=O)O [glycine],"relatively poor activity overall, they showed some degree of specificity against polypeptide 2",–
highest activity,CC(C)[C@H](N)C(=O)O [valine containing compound],"competed for polypeptides 1, 2 and cathepsin B but had little effect on the remaining species",–
highest activity,CCCC[C@H](N)C(=O)O [norleucine],highest activity and the lowest amount of specificity,–
–,CC(C)C[C@H](NC(=O)[C@H]1O[C@@H]1C(=O)O)C(=O)NCCCCN=C(N)N [E-64],–,"competition of 125I-DCG-04 labeling ([1]; increasing concentrations, preincubation, DC2.4 extracts): effectively competed; effect on cellular invasion (invasive cells): block in cellular invasion into a synthetic matrix; reactivity toward cysteine proteases [2]: broadly reactive; inhibition of in situ protease labeling by green-DCG-04 [3]: completely inhibited"
highest activity,CC[C@H](C)[C@H](N)C(=O)O [isoleucine],highest activity and the lowest amount of specificity,–
–,"CC(C)CC(NC(=O)C1OC1C(=O)O)C(=O)NCCc1ccc(O)cc1 (stereo not shown) [JPM-565, reference compound]",–,"labeling as detected by affinity blotting ([4]; non-radiolabeled compound, DC2.4 extracts): no labeling"
–,N[C@@H](CC(=O)O)C(=O)O [aspartic acid],"relatively poor activity overall, they showed some degree of specificity against polypeptide 2",–
highest activity,DCG-04,highest activity and the lowest amount of specificity,"labeling of major 20-40 kDa species after preheating of samples ([4]; preheated to 100° C. for 1 min before adding compound): lost upon heat denaturation; proteases identified via probe [5]: cathepsins Z, H, C and J; active cysteine proteases identified via probe [6]: cathepsin B, H, and L"

Compound,"activity, competition of 125I-MB-074 labeling of cathepsin B (cathepsin B)","potency and selectivity, competition of 125I-DCG-04 labeling of multiple polypeptides [1]",further results
N[C@@H](Cc1ccccc1)C(=O)O [phenylalanine],highest activity followed by the aromatic amino acids,"specificity for polypeptides 2, 3, 4, and 5",–
N[C@@H](Cc1ccc(O)cc1)C(=O)O [tyrosine],highest activity followed by the aromatic amino acids,"specificity for polypeptides 2, 3, 4, and 5",–

# From patent US20020150961A1, “Activity-dependent cysteine protease profiling reagent” (The Regents of the University of California Office of …, priority 2000, published 2002)
